# Laboratory results from patent publication US12195427B2, “MASP-2 inhibitors and methods of use” (priority 2018, dated 2025).
# Assays:
# [1] = tested on: Lectin Pathway; assay: Lectin Pathway Activation Assay in Human Serum (mannan-coated ELISA, C3c detection); format: biochemical; conditions: 1% human serum
# Protocol: Microtiter ELISA plate was coated with mannan from Saccharomyces cerevisiae (Sigma-Aldrich, M7504) for overnight at 4° C. in coating buffer [15 mM Na2CO3, 35 mM NaHCO3].
# [2] = target: MASP-2 CCP2-SP (Homo sapiens (Human), UniProt O00187); assay: MASP-2 co-crystallization, X-ray crystallography and structure analysis (H-bonds, van der Waals contacts); parameters: van der Waals contact distance, MASP-2 HIS 483 atom CD2 / van der Waals contact distance, MASP-2 HIS 483 atom NE2 / van der Waals contact distance, SER 654 C to compound atom / van der Waals contact distance, SER 654 O to compound atom / van der Waals contact distance, TRP 655 C to compound atom / van der Waals contact distance, MASP-2 GLY 528 atom CA / van der Waals contact distance TRP 655 atom CZ3 / van der Waals contact distance TRP 655 atom N / van der Waals contact distance TRP 655 atom CE3 / van der Waals contact distance GLY 656 atom C / van der Waals contact distance GLY 656 atom CA / van der Waals contact distance GLY 656 atom O / van der Waals contact distance, MASP-2 TYR 607 atom CD1 / van der Waals contact distance, MASP-2 PRO 606 atom O / d(C3,CA1) / d(CA1,N1)2 / d(H4,O1) / d(H4,O2) / d(O1,O2) / d(CA1,O2) / d(CA6,O1) / d(CA6,O2) / d(CA1,C5) / d(O2,H3) / d(N2,C2) / d(CA5,N2) / d(N2,C4) / d(N2,C6) / d(N2,CA3) / d(N2,O3) / d(O4,H2): unit not given beside the values;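 for Ligand-pharmacophore element distance, pharmacophore element C2: distance from averaged pharmacophore element to bound ligand; missing value means element absent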;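 for Ligand-pharmacophore element distance, pharmacophore element C3: distance from averaged pharmacophore element to bound ligand; missing value means element absent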;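 for Ligand-pharmacophore element distance, pharmacophore element C4: distance from averaged pharmacophore element to bound ligand; missing value means element absent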;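 for Ligand-pharmacophore element distance, pharmacophore element C5: distance from averaged pharmacophore element to bound ligand; missing value means element absent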
# Method in brief: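 Inhibitor complexes were obtained by soaking crystals of E. coli-derived human MASP-2 CCP2-SP. Synchrotron diffraction at 1.0 wavelength, molecular replacement and partial refinement gave the models; one pose per ligand was chosen for contact analysis.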
# [3] = Table A5-1 pharmacophore: distance between elements, S2/S1 region
# [4] = Table A5-2 pharmacophore distance, S3/S4 region
# [5] = Table A7-1, between pharmacophore elements of the bound compound
# [6] = Table A8-6, nearest protein atom in cell to the left
# MASP-2 CCP2-SP, sequence (O00187 445-686): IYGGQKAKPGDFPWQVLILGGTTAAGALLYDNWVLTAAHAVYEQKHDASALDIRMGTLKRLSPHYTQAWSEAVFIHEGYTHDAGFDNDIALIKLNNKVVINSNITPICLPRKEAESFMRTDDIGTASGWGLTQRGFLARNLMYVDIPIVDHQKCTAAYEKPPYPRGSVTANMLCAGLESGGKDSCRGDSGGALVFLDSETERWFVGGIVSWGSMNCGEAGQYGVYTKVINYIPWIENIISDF
# MASP-2 CCP2-SP, sequence (O00187 364-432 partner): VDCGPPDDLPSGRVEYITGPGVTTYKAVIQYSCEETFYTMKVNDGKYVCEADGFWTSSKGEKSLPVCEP
smiles,measurement,setting,value
C[C@H](NC(=O)[C@H]1C[C@@H](c2ccccc2)CCN1)C(=O)NCc1ccc(C(=N)N)cc1 (stereo in doubt) [compound 1065],IC50,[1],< 50 nM
same,H-bond distance to MASP-2 ASP 627 atom OD1,"[2]; Table A1 (H-Bonds), ASP 627 OD1",3.14
same,H-bond distance to MASP-2 ASP 627 atom OD2,"[2]; Table A1 (H-Bonds), ASP 627 OD2",3.08
same,H-bond distance to MASP-2 GLY 656 atom N,"[2]; Table A1 (H-Bonds), GLY 656 N",3.31
same,H-bond distance to MASP-2 SER 654 atom O,"[2]; Table A1 (H-Bonds), SER 654 O",2.92
same,"van der Waals contact distance, MASP-2 HIS 483 atom CD2",[2]; Table A2-1,3.67
same,"van der Waals contact distance, MASP-2 amino acid atom to compound atom","[2]; Table A2-9, ARG 630, AA atoms CG, CZ",3.55
same,"van der Waals contact distance, SER 654 C to compound atom",[2]; Table A2-11,3.78
same,"van der Waals contact distance, VAL 653 CG1 to compound atom",[2]; Table A2-11,3.6
same,"van der Waals contact distance, TRP 655 CA to compound atom",[2]; Table A2-12,3.46
same,van der Waals contact distance TRP 655 atom CE3,"[2]; Table A2-13, MASP-2 TRP 655 CE3, compound atom in line below",3.6
same,"Ligand-pharmacophore element distance, pharmacophore element C2","[2]; Table A4-1, element C2",0.11
same,"Ligand-pharmacophore element distance, pharmacophore element C3","[2]; Table A4-1, element C3",0
same,"Ligand-pharmacophore element distance, pharmacophore element C4","[2]; Table A4-1, element C4",0
same,"Ligand-pharmacophore element distance, pharmacophore element C5","[2]; Table A4-1, element C5",0
same,"Ligand-pharmacophore element distance, pharmacophore element C6","[2]; Table A4-1, element C6",0
same,"Ligand-pharmacophore element distance, pharmacophore element C7","[2]; Table A4-1, element C7",0
same,"Ligand-pharmacophore element distance, pharmacophore element CA1","[2]; Table A4-1, element CA1",0.88
same,"Ligand-pharmacophore element distance, pharmacophore element CA2","[2]; Table A4-1, element CA2",0.1
same,"Ligand-pharmacophore element distance, pharmacophore element CA3","[2]; Table A4-1, element CA3",0
same,"Ligand-pharmacophore element distance, pharmacophore element CA4","[2]; Table A4-1, element CA4",0
same,"Ligand-pharmacophore element distance, pharmacophore element CA5","[2]; Table A4-1, element CA5",0
same,"Ligand-pharmacophore element distance, pharmacophore element CA6","[2]; Table A4-1, element CA6",0
same,"d(CA1,N1)",[2]; [3],3.47
same,"d(CA1,O1)",[2]; [3],4.32
same,"d(CA1,O2)",[2]; [3],4.20
same,"d(H4,O1)",[2]; [3],6.39
same,"d(H4,O2)",[2]; [3],5.35
same,"d(O1,O2)",[2]; [3],3.30
same,"d(N2,C2)",[2]; [4],1.40
same,"d(N2,CA2)",[2]; [4],5.75
same,"d(O2,H3)",[2]; [4],4.40
same,"d(O2,N2)",[2]; [4],2.83
same,"a(CA1, O1, O2)",[2]; Table A6-1 pharmacophore angle,110.77
same,"a(O1, O2, H4)",[2]; Table A6-1 pharmacophore angle,148.95
same,"A(N1, CA1, O1) a)","[2]; Table A6-1 pharmacophore angle, all compounds with protonatable center N1 except Methyl-amino-pyridine",165.45
same,"a(O1, O2, H3)",[2]; Table A6-2 pharmacophore angle,145.76
same,"a(O1, O2, N2)",[2]; Table A6-2 pharmacophore angle,144.81
same,"a(O2, N2, C2)",[2]; Table A6-2 pharmacophore angle,124.85
same,"a(O2, N2, CA2)",[2]; Table A6-2 pharmacophore angle,154.55
same,"Pharmacophore torsion angle a(H4, O1, O2, H3)",[2]; [5],44.38
same,"Pharmacophore torsion angle a(H4, O1, O2, N2)",[2]; [5],129.83
same,"Pharmacophore torsion angle a(N1, CA1, O2, H4)",[2]; [5],−89.34
same,"Pharmacophore torsion angle a(O1, H4, O2, CA1)",[2]; [5],−21.94
same,"Pharmacophore torsion angle a(O1, O2, N2, C2)",[2]; [5],124.96
same,"Pharmacophore torsion angle a(O1, O2, N2, CA2)","[2]; Table A7-2, between pharmacophore elements of the bound compound",129.88
same,Pharmacophore protein distance to MET_658 (first MET_658 column),"[2]; Table A8-6, 6th residue column, nearest protein atom in cell to the left",3.34
same,Pharmacophore protein distance to MET_658 (second MET_658 column),"[2]; Table A8-6, 9th residue column, nearest protein atom in cell to the left",3.79
same,Pharmacophore protein distance to GLY_528,[2]; [6],3.56
same,Pharmacophore protein distance to PHE_529,[2]; [6],2.70
same,Pharmacophore protein distance to PRO_608,[2]; [6],3.75
same,Pharmacophore protein distance to SER_611,[2]; [6],2.57
same,Pharmacophore protein distance to TRP_655,"[2]; Table A8-6, pharmacophore elements C6, CA3, O3, H1, nearest protein atom in cell to the left",3.87
